Measured values: patent US9926276B2, “Substituted benzamides with activity towards EP4 receptors” (DRACONIS PHARMA, S.L., priority 2013, dated 2018)

What follows are compounds tested against human EP4 receptor (Homo sapiens, UniProt P35408) (assay: Human EP4 receptor radioligand binding assay (Test 1)). Conditions: [3H]-PGE2 1 nM, transfected HEK-293 cell membranes, read-out: Results of Test 1 (Binding assay, % inh).
Set-up: expressed in transfected cells; host or cells: HEK-293 cell membranes
Method: Test 1: Human EP4 Receptor Radioligand Binding Assay
To investigate binding properties of EP4 receptor ligands to human EP4 receptor, transfected HEK-293 cell membranes and [3H]-PGE2 (Perkin Elmer) were used. In 96-well plates the assay was carried out with a total reaction volume of 250 μl, containing 25 μl of membrane suspension (30 μg protein/well), 25 μl of [3H]-PGE2 (1 nM) in either absence or presence of 25 μl of either buffer or PGE2 (10 μM) for total and non-specific binding, respectively. Binding buffer contained 25 mM MES, 10 mM MgCl2 and 1 mM EDTA at pH 6.0. Plates were incubated at 25° C. for 120 minutes. After the incubation period, 200 μl of incubate were transferred to MultiScreen HTS, FB plates (Millipore), filtered and plates were washed 6 times with ice-cold 10 mM MES, 0.01% BSA at pH 6.0. Filters were dried and counted in a MicroBeta scintillation counter (Perkin-Elmer) using EcoScint liquid scintillation cocktail.
Percentage inhibition was calculated relating compounds activity to the 0% inhibition of the wells incubated with 1 nM [3H]-PGE2 alone (total binding) and 100% inhibition of the wells incubated with 1 nM [3H]-PGE2 plus 10 μM PGE2 (non-specific binding).

Sequence of human EP4 receptor (P35408 whole entry): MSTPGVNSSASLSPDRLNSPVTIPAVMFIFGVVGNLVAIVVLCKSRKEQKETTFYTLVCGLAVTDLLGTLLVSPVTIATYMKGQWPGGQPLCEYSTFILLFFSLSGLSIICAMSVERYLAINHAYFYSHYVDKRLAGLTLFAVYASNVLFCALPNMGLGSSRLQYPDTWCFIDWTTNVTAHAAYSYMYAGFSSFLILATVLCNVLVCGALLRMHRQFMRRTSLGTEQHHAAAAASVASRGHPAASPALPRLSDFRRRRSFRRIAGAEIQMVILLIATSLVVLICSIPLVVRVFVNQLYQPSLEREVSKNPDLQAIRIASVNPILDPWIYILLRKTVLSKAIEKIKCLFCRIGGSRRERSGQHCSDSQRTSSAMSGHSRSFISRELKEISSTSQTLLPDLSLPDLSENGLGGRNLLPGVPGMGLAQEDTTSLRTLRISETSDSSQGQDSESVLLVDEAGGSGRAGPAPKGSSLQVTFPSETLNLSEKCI

SMILES	inhibition at 10 µM [%]
CC(C)COc1ccc(Cl)c(C(=O)Nc2ccc(C(=O)O)cc2Cl)c1 [Example 26, 3-Chloro-4-(2-chloro-5-isobutoxybenzamido)benzoic acid]	> 75
Cc1cc(C(=O)O)cc(Cl)c1NC(=O)c1cc(OCC(C)C)ccc1Cl [Example 27, 3-Chloro-4-(2-chloro-5-isobutoxybenzamido)-5-methylbenzoic acid]	> 75
COc1cc(C(=O)O)ccc1NC(=O)c1cc(OCC(C)C)ccc1Cl [Example 28, 4-(2-Chloro-5-isobutoxybenzamido)-3-methoxybenzoic acid]	> 75
O=C(O)c1cc(Cl)c(NC(=O)c2cc(OCc3ccccc3)ccc2Cl)c(Cl)c1 [Example 29, 4-(5-(Benzyloxy)-2-chlorobenzamido)-3,5-dichlorobenzoic acid]	> 75
CC(C)Oc1ccc(Cl)c(C(=O)Nc2c(Cl)cc(C(=O)O)cc2Cl)c1 [Example 30, 3,5-Dichloro-4-(2-chloro-5-isopropoxybenzamido)benzoic acid]	> 75
COc1ccc(Cl)c(C(=O)Nc2c(Cl)cc(C(=O)O)cc2Cl)c1 [Example 31, 3,5-Dichloro-4-(2-chloro-5-methoxybenzamido)benzoic acid]	> 75
O=C(O)c1cc(Cl)c(NC(=O)c2cc(OCC3CCC3)ccc2Cl)c(Cl)c1 [Example 32, 3,5-Dichloro-4-(2-chloro-5-(cyclobutylmethoxy)benzamido)benzoic acid]	> 75
CCOc1ccc(Cl)c(C(=O)Nc2c(Cl)cc(C(=O)O)cc2Cl)c1 [Example 33, 3,5-Dichloro-4-(2-chloro-5-ethoxybenzamido)benzoic acid]	> 75
CC(C)(C)COc1ccc(Cl)c(C(=O)Nc2c(Cl)cc(C(=O)O)cc2Cl)c1 [Example 34, 3,5-Dichloro-4-(2-chloro-5-(neopentyloxy)benzamido)benzoic acid]	> 75
O=C(Nc1c(F)c(F)c(C(=O)O)c(F)c1F)c1cc(OCc2ccc(F)cc2F)ccc1Cl [Example 37, 4-(2-Chloro-5-(2,4-difluorobenzyloxy)benzamido)-2,3,5,6-tetrafluorobenzoic acid]	45 to 75
Cc1ccc(C(=O)O)cc1NC(=O)c1cc(-c2nccc(C(F)(F)F)n2)ccc1Cl [Example 43, 3-(2-Chloro-5-(4-(trifluoromethyl)pyrimidin-2-yl)benzamido)-4-methylbenzoic acid]	> 75
Cc1ccc(C(=O)O)cc1NC(=O)c1cc(OCC(C)C)ccc1Cl [Example 44, 3-(2-Chloro-5-isobutoxybenzamido)-4-methylbenzoic acid]	> 75
CC(C)COc1ccc(Cl)c(C(=O)Nc2c(Cl)cc(C(=O)O)cc2Cl)n1 [Example 49, 3,5-Dichloro-4-(3-chloro-6-isobutoxypicolinamido)benzoic acid]	> 75
O=C(O)c1cc(Cl)c(NC(=O)c2nc(NCC3CC3)ccc2Cl)c(Cl)c1 [Example 50, 3,5-Dichloro-4-(3-chloro-6-(cyclopropylmethylamino)picolinamido)benzoic acid]	> 75
O=C(O)c1cc(Cl)c(NC(=O)c2nc(NC3CCCC3)ccc2Cl)c(Cl)c1 [Example 51, 3,5-Dichloro-4-(3-chloro-6-(cyclopentylamino)picolinamido)benzoic acid]	> 75

Same assay, conditions: at 10 μM; [3H]-PGE2 1 nM, transfected HEK-293 cell membranes

SMILES	Results of Test 1 (Binding assay, % inh)
Cc1c(NC(=O)c2cc(-c3cccc(Cl)c3)ccc2Cl)cccc1C(=O)O [Example 39, 3-(3′,4-Dichlorobiphenyl-3-ylcarboxamido)-2-methylbenzoic acid]	# (% inh >75)
Cc1ccc(C(=O)O)cc1NC(=O)c1cc(-c2cccc(Cl)c2)ccc1Cl [Example 40, 3-(3′,4-Dichlorobiphenyl-3-ylcarboxamido)-4-methylbenzoic acid]	# (% inh >75)
O=C(O)c1ccc(Cl)c(NC(=O)c2cc(-c3cccc(Cl)c3)ccc2Cl)c1 [Example 41, 4-Chloro-3-(3′,4-dichlorobiphenyl-3-ylcarboxamido)benzoic acid]	# (% inh >75)
